What was measured:
BA/F3 (insSVD) cells = assay: Ba/F3-EGFR-insSVD cell survival assay (Cell Titer-Glo); type: cell-based; details: Mus musculus, BaF3, 48 h
Method in brief: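 Ba/F3 cells stably expressing retroviral EGFR-insSVD or insSVD T790M, grown without IL-3 on 10 ng/ml EGF, 4000 cells/well. Compound pinned in, 48 h at 37° C. Viability by CellTiter-Glo luminescence.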

[1] = target: T1, mutEGFR (D770_N771insNPG, T790) (Homo sapiens, UniProt P00533, INS770NPG/T790M); assay: mutEGFR (D770_N771insNPG, T790) kinase assay; type: biochemical
T1 construct: exact insNPG construct not described; in-house EGFR proteins were N-terminal GST fusions from baculovirus/insect cells (borders R669-A1210 given only for WT, insSVD, insASV)
Text: The different EGFR proteins used in the biochemical kinase activity inhibition assays were generated inhouse by expression in insect cells using Baculo Virus system and subsequent purification as described in the following paragraphs.
The cDNAs encoding the various protein sequences from human EGFR human (P00533) were optimized for expression in eukaryotic cells and synthesized by the GeneArt Technology at Life Technologies.

[2] = target: T2, mutEGFR (D770_N771insSVD) (Homo sapiens, UniProt P00533, DUP768-770); assay: Exon20-Mutant-EGFR (D770_N771insSVD) kinase assay (TR-FRET); type: biochemical
T2 construct: GST-EGFR #3 (SVD between D770 and N771); made in house; host or cells: Sf9 insect cells (baculovirus)

[3] = system: BA/F3 (EGFR D770_N771 insSVD T790M) cells; assay: Ba/F3-EGFR-insSVD T790M cell survival assay (Cell Titer-Glo); type: cell-based; details: Ba/F3 EGFR-D770-N771ins_SVD, 48 h
Method: Cellular Data Description (WT, insSVD, insSVD T790M) 293T cells from ATCC were transfected with pBABEpuro expression constructs for WT EGFR or EGFR-insSVD, or EGFR-insSVD T790M, and pCL-Eco packaging vector using Fugene-6 transfection reagent from Promega. Plates were incubated at 37° C. for 48 h. Retrovirus was harvested by filtering the media supernatant through a 0.45 μm filter.
Ba/F3 cells purchased from DSMZ were grown in RPMI+10% FBS+10 ng/ml IL-3 and infected with filtered retroviral supernatant at a 1:2 dilution. Polybrene was added to a concentration of 8 μg/mL, plates were spun for 90 min, and incubated for 16 h at 37° C. 2 μg/mL puromycin was added to the infected cells 24 h after infection and cells were continually grown in the presence of puromycin and 10 ng/ml IL-3. Following stably expressing Ba/F3 cell lines were generated: Ba/F3-EGFR-WT, Ba/F3-EGFR-insSVD, Ba/F3-EGFR-insSVD T790M, (Ba/F3-vector-control).
For cell survival assays, Ba/F3 cells were grown to a density of 1-2 million cells per mL, spun down and resuspended in media without IL-3, and replated at a concentration of 200,000-500,000 cells per mL. The cells ectopically expressing WT EGFR, EGFR-insSVD, or EGFR-insSVD T790M were plated with 10 ng/ml Millipore Culture grade EGF. The cells ectopically expressing pBABEpuro empty vector were plated with 10 ng/mL IL-3.
2 days later, cells were plated in 50 µL in a 384 well plate at a concentration of 4000 cells per well for cells assayed in the absence of IL-3 and 2000 cells per well for cells assayed in the presence of IL-3. 100 nL of compound was added to each well using a 100 nL pin head, and plates were incubated at 37° C. for 48 h.
Cell viability was measured by adding 20 μL of Cell Titer-Glo Luminescent Cell Viability Reagent diluted 1:3 in PBS. Plates were sealed with Perkin Elmer Top-Seal, inverted several times to mix, and immediately centrifuged at 1000 rpm for 2 min. Plates were incubated in low light conditions for 8-10 min and luminescence was measured.

EGFR exon20 insertions = details: patients with EGFR exon20 insertions; cited from earlier work
[4] = system: mutations in exons 18, 19, and 21 of EGFR; details: cited from earlier work
[5] = background statement on approved drugs; cited from earlier work
EGFR T790M = details: T790M mutant patients; cited from earlier work
[6] = system: EGFR exon20 insertion mutations; details: cited from earlier work
[7] = system: classical activating EGFR mutations and brain metastasis; details: EGFR mutant NSCLC; cited from earlier work
[8] = Table 3a, cell survival, Cell Titer-Glo, with 10 ng/ml EGF, without IL-3
[9] = Table 2b (from US Priority Patent Application), mutEGFR D770_N771insNPG
[10] = mutEGFR (D770_N771insSVD) kinase assay IC50, Table 2a, D770_N771insSVD, 2 mM ATP
[11] = mutEGFR (D770_N771insSVD) kinase assay IC50, Table 2b (from US Priority Patent Application), mutEGFR D770_N771insSVD
[12] = Table 3b, Ba/F3 EGFR-insSVD T790M

T2 sequence (P00533 with tags, fused parts or gaps DUP768-770): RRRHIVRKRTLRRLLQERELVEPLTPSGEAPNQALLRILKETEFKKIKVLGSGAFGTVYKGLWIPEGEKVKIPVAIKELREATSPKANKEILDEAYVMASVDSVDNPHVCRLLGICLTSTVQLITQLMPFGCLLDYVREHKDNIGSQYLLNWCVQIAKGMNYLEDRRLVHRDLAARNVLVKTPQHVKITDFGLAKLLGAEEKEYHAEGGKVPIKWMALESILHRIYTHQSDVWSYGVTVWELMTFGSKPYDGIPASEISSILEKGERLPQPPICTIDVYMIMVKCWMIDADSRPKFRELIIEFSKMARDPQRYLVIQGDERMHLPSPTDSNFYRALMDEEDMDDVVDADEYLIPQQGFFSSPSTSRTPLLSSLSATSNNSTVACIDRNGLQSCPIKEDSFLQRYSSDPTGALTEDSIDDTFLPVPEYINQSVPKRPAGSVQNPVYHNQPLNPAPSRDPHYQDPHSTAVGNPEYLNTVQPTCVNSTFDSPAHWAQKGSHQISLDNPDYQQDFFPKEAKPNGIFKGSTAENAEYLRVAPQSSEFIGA
T1 sequence (P00533 with tags, fused parts or gaps INS770NPG/T790M limits assumed): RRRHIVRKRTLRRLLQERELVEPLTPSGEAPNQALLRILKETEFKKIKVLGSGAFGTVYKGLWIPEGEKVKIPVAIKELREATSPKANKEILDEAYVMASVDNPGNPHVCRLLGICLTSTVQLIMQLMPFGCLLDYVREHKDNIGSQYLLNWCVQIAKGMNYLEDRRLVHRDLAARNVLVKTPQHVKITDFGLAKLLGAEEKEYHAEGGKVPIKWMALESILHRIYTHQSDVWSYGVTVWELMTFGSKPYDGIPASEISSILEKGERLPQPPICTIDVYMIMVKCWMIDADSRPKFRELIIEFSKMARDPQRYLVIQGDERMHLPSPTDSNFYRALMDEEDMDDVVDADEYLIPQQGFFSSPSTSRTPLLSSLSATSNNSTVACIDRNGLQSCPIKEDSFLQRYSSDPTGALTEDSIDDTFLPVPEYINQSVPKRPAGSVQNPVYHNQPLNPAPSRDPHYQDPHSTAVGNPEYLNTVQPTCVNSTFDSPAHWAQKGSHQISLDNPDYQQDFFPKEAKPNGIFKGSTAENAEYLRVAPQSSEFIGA

| Molecule | IC50 ([1]; Table 2a, D770_N771insNPG) [nM] | IC50 [1, 9] [nM] | IC50 [2, 10] [nM] | IC50 [2, 11] [nM] | IC50 (BA/F3 (insSVD) cells; [8]) [nM] | IC50 (BA/F3 (insSVD) cells; Table 3b, Ba/F3 EGFR-insSVD) [nM] | IC50 [3, 8] [nM] | IC50 [3, 12] [nM] | other results |
| --- | --- | --- | --- | --- | --- | --- | --- | --- | --- |
| C=CC(=O)N1CCn2nc(-c3ccc(F)cc3)c(-c3ccnc(NC(=O)C4CC4)c3)c2C1 [Example 7, N-{4-[2-(4-fluorophenyl)-5-(prop-2-enoyl)-4,5,6,7-tetrahydropyrazolo[1,5-a]pyrazin-3-yl]pyridin-2-yl}cyclopropanecarboxamide] | 0.408 | 0.408 | 0.209 | 0.209 | 12.4 | 12.4 | 60.1 | 60.1 |  |
| C=CS(=O)(=O)N1CCn2nc(-c3ccc(F)cc3)c(-c3ccncc3)c2C1 [Example 14, 5-(ethenesulfonyl)-2-(4-fluorophenyl)-3-(pyridin-4-yl)-4,5,6,7-tetrahydropyrazolo[1,5-a]pyrazine] | 0.867 | 0.867 | 0.406 | 0.406 | 760 | 760 | 983 | 983 |  |
| CC(C)N(C)C/C=C/C(=O)N1CCn2nc(-c3ccc(F)cc3)c(-c3ccncc3)c2C1 [Example 18, (2E)-1-[2-(4-fluorophenyl)-3-(pyridin-4-yl)-6,7-dihydropyrazolo[1,5-a]pyrazin-5(4H)-yl]-4-[methyl(propan-2-yl)amino]but-2-en-1-one] | 1.76 | 1.76 | 0.451 | 0.451 | 143 | 143 | 9980 | 0.217 |  |
| C=CC(=O)N1CCn2nc(-c3ccc(Cl)c(F)c3)c(-c3ccncc3)c2C1 [Example 36, 1-[2-(4-chloro-3-fluorophenyl)-3-(pyridin-4-yl)-6,7-dihydropyrazolo[1,5-a]pyrazin-5(4H)-yl]prop-2-en-1-one] | 1.13 |  | 0.321 |  | 17.9 |  | 126 |  |  |
| C=CC(=O)N1CCn2nc(-c3ccc(Cl)cc3F)c(-c3ccncc3)c2C1 [Example 37, 1-[2-(4-chloro-2-fluorophenyl)-3-(pyridin-4-yl)-6,7-dihydropyrazolo[1,5-a]pyrazin-5(4H)-yl]prop-2-en-1-one] | 0.658 |  | 0.258 |  | 7.14 |  | 104 |  |  |
| C=CC(=O)N1CCn2nc(-c3ccc4sccc4c3)c(-c3ccncc3)c2C1 [Example 192, 1-[2-(1-benzothiophen-5-yl)-3-(pyridin-4-yl)-6,7-dihydropyrazolo[1,5-a]pyrazin-5(4H)-yl]prop-2-en-1-one] | 0.0916 |  | < 0.0725 |  | 148 |  | 39.7 |  |  |
| C#Cc1cccc(Nc2ncnc3cc(OCCOC)c(OCCOC)cc23)c1 [erlotinib] |  |  |  |  |  |  |  |  | overall survival (EGFR exon20 insertions): significantly reduced; progression-free survival (EGFR exon20 insertions): significantly reduced; response rates (EGFR exon20 insertions): particular low response rates; durability of response [4]: often not durable; efficacy in patients [4]: effective in patients |
| COc1cc2ncnc(Nc3ccc(F)c(Cl)c3)c2cc1OCCCN1CCOCC1 [gefitinib] |  |  |  |  |  |  |  |  | overall survival (EGFR exon20 insertions): significantly reduced; progression-free survival (EGFR exon20 insertions): significantly reduced; response rates (EGFR exon20 insertions): particular low response rates; durability of response [4]: often not durable; efficacy in patients [4]: effective in patients |
| C=CC(=O)Nc1cc(Nc2ncc(C(=O)OC(C)C)c(-c3cn(C)c4ccccc34)n2)c(OC)cc1N(C)CCN(C)C [mobocertinib, reference compound] |  |  |  |  |  |  |  |  | blood-brain-barrier permeability [5]: only limited blood-brain-barrier permeability |
| C=CC(=O)Nc1cc(Nc2nccc(-c3cn(C)c4ccccc34)n2)c(OC)cc1N(C)CCN(C)C [osimertinib] |  |  |  |  |  |  |  |  | efficacy in patients (EGFR T790M): effective in T790M mutant patients; activity on EGFR exon20 insertion mutations [6]: only limited activity; CNS activity [7]: clearly improved CNS activity |
| amivantamab |  |  |  |  |  |  |  |  | blood-brain-barrier permeability [5]: only limited blood-brain-barrier permeability |

Continued by falling IC50 ([1]; Table 2a, D770_N771insNPG), values first:

| IC50 ([1]; Table 2a, D770_N771insNPG) [nM] | IC50 [1, 9] [nM] | IC50 [2, 10] [nM] | IC50 [2, 11] [nM] | Molecule | IC50 (BA/F3 (insSVD) cells; [8]) [nM] | IC50 (BA/F3 (insSVD) cells; Table 3b, Ba/F3 EGFR-insSVD) [nM] | IC50 [3, 8] [nM] | IC50 [3, 12] [nM] | other results |
| --- | --- | --- | --- | --- | --- | --- | --- | --- | --- |
| 2.26 | 2.26 | 0.849 | 0.849 | C=CC(=O)N1CCn2nc(-c3ccc(F)cc3)c(-c3ccnc(N)c3)c2C1 [Example 10, 1-[3-(2-aminopyridin-4-yl)-2-(4-fluorophenyl)-6,7-dihydropyrazolo[1,5-a]pyrazin-5(4H)-yl]prop-2-en-1-one] | 46.5 | 46.5 | 346 | 346 |  |
| 1.04 | 1.04 | 2.19 | 2.19 | C=CC(=O)N1CCn2nc(-c3cccc(OC)c3)c(-c3ccncc3)c2C1 [Example 5, 1-[2-(3-methoxyphenyl)-3-(pyridin-4-yl)-6,7-dihydropyrazolo[1,5-a]pyrazin-5(4H)-yl]prop-2-en-1-one] | 80.5 | 80.5 | 114 | 114 |  |
| 0.952 |  | 0.382 |  | CN(C)CC#CC(=O)N1CCn2nc(-c3ccc(F)cc3)c(-c3ccncc3)c2C1 [Example 65, 4-(dimethylamino)-1-[2-(4-fluorophenyl)-3-(pyridin-4-yl)-6,7-dihydropyrazolo[1,5-a]pyrazin-5(4H)-yl]but-2-yn-1-one] | 15.3 |  | 1010 |  |  |
| 0.407 | 0.407 | 0.326 | 0.326 | CC(C)N(C)C/C=C/C(=O)N1CCn2nc(-c3ccc(F)cc3)c(-c3ccnc(NC(=O)C4CC4)c3)c2C1 [Example 6, N-{4-[2-(4-fluorophenyl)-5-{(2E)-4-[methyl(propan-2-yl)amino]but-2-enoyl}-4,5,6,7-tetrahydropyrazolo[1,5-a]pyrazin-3-yl]pyridin-2-yl}cyclopropanecarboxamide] | 22.3 | 22.3 | 207 | 207 |  |
| 0.219 |  | 0.0825 |  | C=CC(=O)N1CCn2nc(-c3ccc4cc[nH]c4c3)c(-c3ccncc3)c2C1 [Example 195, 1-[2-(1H-indol-6-yl)-3-(pyridin-4-yl)-6,7-dihydropyrazolo[1,5-a]pyrazin-5(4H)-yl]prop-2-en-1-one] | 8.9 |  | 43.3 |  |  |
| 0.148 |  | 0.0982 |  | C=CC(=O)N1CCn2nc(-c3ccc(Cl)c(Cl)c3)c(-c3ccncc3)c2C1 [Example 40, 1-[2-(3,4-dichlorophenyl)-3-(pyridin-4-yl)-6,7-dihydropyrazolo[1,5-a]pyrazin-5(4H)-yl]prop-2-en-1-one] | 14.9 |  | 56 |  |  |
